From ChEMBL document CHEMBL5608113, “Targeting of CAF-induced therapy resistance in CRC organoid-stroma co-cultures” (2024)
Square brackets hold non-standard residues; d marks the D form. Peptide text beside a SMILES is read from it. Arg(Me) = CNC(=N)NCCC[C@H](N)C(=O)O; d3Pal = N[C@H](Cc1cccnc1)C(=O)O; azaGly = NNC(=O)O

Columns and labels:
Assay type in all cases: functional, Homo sapiens
Settings in all cases: Homo sapiens, read-out: Cell Viability; for viability at 10 µM: Concentration 10 uM
Colon cancer organoid [1] = test: Targeting of F14 CAF-induced therapy resistance in O23 CRC organoid-stroma co-culture. Cell viability is reported without Gefitinib.
Colon cancer organoid [2] = test: Targeting of F14 CAF-induced therapy resistance in O14 CRC organoid-stroma co-culture. Cell viability is reported with Gefitinib.
Colon cancer organoid [3] = test: Targeting of F14 CAF-induced therapy resistance in O23 CRC organoid-stroma co-culture. Cell viability is reported with Gefitinib.
Colon cancer organoid [4] = test: Targeting of F14 CAF-induced therapy resistance in O14 CRC organoid-stroma co-culture. Cell viability is reported without Gefitinib.
Colon cancer organoid [5] = test: Targeting of F14 CAF-induced therapy resistance in O23 CRC organoid-stroma co-culture. Cell viability is reported with SN-38.

Row | Compound | viability at 10 µM (Colon cancer organoid [1]) [%] | viability at 10 µM (Colon cancer organoid [2]) [%] | viability at 10 µM (Colon cancer organoid [3]) [%] | viability at 10 µM (Colon cancer organoid [4]) [%] | viability at 10 µM (Colon cancer organoid [5]) [%] | viability at 1 µM (Colon cancer organoid [1]; Concentration 1 uM) [%] | viability at 1 µM (Colon cancer organoid [2]; Concentration 1 uM) [%] | viability at 1 µM (Colon cancer organoid [3]; Concentration 1 uM) [%] | viability at 1 µM (Colon cancer organoid [4]; Concentration 1 uM) [%] | viability at 1 µM (Colon cancer organoid [5]; Concentration 1 uM) [%]
1 | CNCCN1CCC(OCc2ccccc2)CC1 | 139 | 43.9 | 59.5 | 42.5 | 69.2 |  |  |  |  | 
2 | COc1ccc(Cn2ccc3ccc(C(=O)NO)cc32)cc1 | 126 | 52.8 | 89.4 | 75.4 | 94.6 |  |  |  |  | 
3 | O=C(Nc1cccnn1)N1CCC(=Cc2cccc(Oc3ccc(C(F)(F)F)cn3)c2)CC1 | 114 | 37.7 | 54.6 | 94 | 105 |  |  |  |  | 
4 | COCCc1ccc(-c2c(C)nc3c(N4CCOCC4)ccnn23)cn1 [JNJ-42396302] | 143 | 65.9 | 97 | 122 | 70.4 |  |  |  |  | 
5 | CCCOc1ccn2c(C(C)=O)cc(-c3cccc(OC)c3)c2c1 | 112 | 64.8 | 74.1 | 113 | 92.8 |  |  |  |  | 
6 | COc1ccccc1-c1cc(N2CCN(C(=O)OC(C)(C)C)CC2)c(N)nn1 | 49.4 | 53.4 | 37.8 | 101 | 35.8 |  |  |  |  | 
7 | Nc1nc(NCc2ccccc2)nc(-c2ccccc2CO)n1 [Ogerin] | 222 | 26.8 | 71.3 | 123 | 106 |  |  |  |  | 
8 | CNC(=N)NCCC[C@H](NC(=O)[C@H](CC(C)C)NC(=O)NNC(=O)[C@H](Cc1ccccc1)NC(=O)[C@H](CO)NC(=O)[C@H](CC(N)=O)NC(=O)[C@@H](Cc1cccnc1)NC(=O)[C@H](N)Cc1ccc(O)cc1)C(=O)NCC(N)=O [KISS1-543] (H-[dY][d3Pal]NSF[azaGly]L[Arg(Me)]G-NH2) | 93.8 | 62.9 | 49.7 | 103 | 71.6 |  |  |  |  | 
9 | c1ccc2oc(-c3csc(C4CCN(Cc5nc6ncccc6[nH]5)CC4)n3)cc2c1 | 159 | 37.9 | 66 | 94.5 | 60.8 |  |  |  |  | 
10 | CCN(Cc1ccc(Cl)cc1)c1ncc(C(=O)NCCCN2CCCC2=O)c(NC2CCCC2)n1 | 105 | 46.6 | 74.3 | 108 | 61.6 |  |  |  |  | 
11 | CCNC(=O)c1cc2c(-c3cc(C(C)(C)O)ccc3Oc3c(C)cc(F)cc3C)cn(C)c(=O)c2[nH]1 [ABBV-744] | 135 | 14.3 | 82 | 78.2 | 75.1 |  |  |  |  | 
12 | NS(=O)(=O)c1cc(NC(=O)Cc2ccccc2)ccc1Oc1cccc(Cl)c1 [BAY-1797] | 114 | 51.7 | 48.6 | 124 | 60.6 |  |  |  |  | 
13 | Cc1c(Oc2ccc(F)cc2)c(OC(C)C)nn1-c1ccc(C2CC2)cn1 [IPP/CNRS-A019] | 147 | 50.2 | 86.4 | 84.4 | 75.2 |  |  |  |  | 
14 | Nc1nc(NCc2ccccc2)nc(-c2cccc(CO)c2)n1 [ZINC32547799] | 139 | 31.3 | 75.9 | 76 | 119 |  |  |  |  | 
15 | CCN(CCO)CCCOc1ccc2c(Nc3cc(CC(=O)Nc4cccc(F)c4)[nH]n3)ncnc2c1 [DEFOSBARASERTIB] | 62.1 | 3.88 | 19.2 | 9.69 | 28.3 |  |  |  |  | 
16 | Cc1c(NC(=O)c2cc(C(N)=O)nc3cc(F)ccc23)c(C(F)(F)F)nn1Cc1ccc(C(C)(C)C)cc1 [BAY-588] |  |  |  |  |  | 111 | 31.3 | 43.1 | 45.5 | 104
17 | COc1ccc(CCc2nc3cc(-c4c(C)noc4C)ccc3n2C[C@H](C)N2CCOCC2)cc1Cl | 91.4 | 61.4 | 47.7 | 121 | 78.6 |  |  |  |  | 
18 | Cc1cnc(-c2cc(Cl)ccc2F)cc1-n1c(=O)n(CC(N)=O)c2cnccc21 [TP-008] | 147 | 43.1 | 43.8 | 114 | 94 |  |  |  |  | 
19 | Cc1cc2c(-c3ccco3)cnc(N[C@@H]3CCN(C)C[C@H]3C(=O)NC3CCCCC3)c2[nH]c1=O [GSK789] | 72.5 | 26.6 | 29.8 | 84.8 | 38.8 |  |  |  |  | 
20 | CCS(=O)(=O)Nc1ccc(Oc2ccc(F)cc2F)c(-c2cn(C)c(=O)c3[nH]ccc23)c1 [MIVEBRESIB] | 37.5 | 1.95 | 29.2 | 5.68 | 25.4 |  |  |  |  | 
